What was measured:
BaF3 KRAS G12C = experiment: MTT assay for cell viability; format: cell-based; settings: Mus musculus, 48 h, 3 independent experiments
Protocol: (§1) FIGS. 4a) and 4b): MTT assay for cell viability in 96 well cell culture plate Cells were treated with Sanguinarine chloride for 48 h and cell viability was evaluated by MTT assay. DMSO-treated cells were set as 1. The results shown are mean±SEM from 3 independent experiments.

BaF3 KRAS G12C/Y96D = experiment: MTT assay for cell viability; format: cell-based; settings: Mus musculus, 48 h, 3 independent experiments
Protocol: as §1

KRAS dependent cells = experiment: MTT assay for cell viability; format: cell-based; settings: 48 h, irrespective of the presence of mutation
Protocol: as §1

NCI-H358 = experiment: Soft agar colony formation assay, MTT; format: cell-based; settings: Homo sapiens, 3 independent experiments
Protocol: (§2) FIGS. 2a), 2b) and 2c): MTT assay for cell growth
(§3) Metabolic activity was quantified using Cell Proliferation Kit I (Roche, Basel, Switzerland). Cells were seeded in 96-well cell culture plates, using 5000 cells per well for NCI-H358 cells. After treatment, 10 μl of MTT solution was added and incubated for 2 h in CO2 incubator. Then 100 μl of solubilization buffer was added to each well and incubated overnight in CO2 incubator. Cell viability, assessed by the amount of metabolized MTT, was quantified by measuring absorbance at 570 nm.
(§4) MTT assay for the growth of different tumour cell lines with RAS mutations in soft agar with Sanguinarine chloride. Shown are data from three independent experiments. NCI-H358, H358, H2122, ASPC-1, HCT-116, T24 and HT1080 cells were used for the soft agar colony formation assay. After the treatment with Sanguinarine chloride, the colonies were stained with MTT and the value was quantified by measuring absorbance at 570 nm after solubilization. The results represent mean±SEM from 3 independent experiments.
(§5) HeLa S3 (DSMZ) were authenticated by Eurofin genomics and cultured in DMEM (10% heat inactivated FBS). NCI-H358 cells were cultured in RPMI-1640 (10% heat inactivated FBS).

[1] = system: KRAS mutants (G12V, G12C, G12D, G12C/Y96D, G13C, G13D, G13S, Q61K and Q61R); experiment: NanoBiT assay for the RAS GTP-loading in HeLa cells transfected with LgBit-KRAS mutants and SmBit-CRAF-RBD; format: cell-based; settings: 2 h, serum-free DMEM
Protocol: NanoBiT assay for the RAS GTP-loading was performed in HeLa cells transfected with LgBit-KRAS mutants and SmBit-CRAF-RBD. Cells were treated with Sanguinarine chloride for 2 h in serum-free DMEM. After incubation, the substrate for NanoLuc was added, and the luminescence was measured in a multiplate reader. Data were normalized to cells transfected with the indicated mutant and exposed to DMSO for 2 h. DMSO-treated cells were set as 1. The bars represent mean±SEM from 3 independent experiments.
as §5

KRAS G12V = target: T1, KRAS G12V (Homo sapiens, UniProt P01116, G12V); experiment: NanoBit assay for RAS activation (LgBiT-KRAS G12V / SmBiT-CRAF RBD); format: cell-based; settings: 2 h with inhibitor, serum free DMEM
T1 construct: CRAF RBD (1-149) fused to SmBiT; transfected cells
T1 sequence (P01116 1-188 isoform P01116-2 G12V): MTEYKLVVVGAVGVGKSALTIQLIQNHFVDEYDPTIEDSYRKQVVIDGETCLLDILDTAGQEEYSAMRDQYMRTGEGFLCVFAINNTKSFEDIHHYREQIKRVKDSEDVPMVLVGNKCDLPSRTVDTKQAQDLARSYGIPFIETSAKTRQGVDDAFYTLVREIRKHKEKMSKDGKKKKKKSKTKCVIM
Protocol: (§6) FIGS. 1a), 1b) and 1c): NanoBit assay for RAS activation (KRAS G12V, NRAS G12V, HRAS G12V)
(§7) N-terminal LgBiT and C-terminal SmBiT construct was purchased from Promega and K, N and HRAS G12V (full length) was cloned with Xho I and Bgl II to LgBit and CRAF Ras binding domain (1-149) was cloned with EcoRI and Bgl II to SmBit. For transfections, 1 μg or 2 μg of (12 well/6 well) plasmids were transfected into cells with 0.5 mM of PEI reagent in 100 μl or 200 μl PBS. One day after transfection, cells were harvested and seeded into 96 well white plates, half area (Greiner). After an additional day the medium was changed to serum free DMEM and the cells were incubated for 2 h with inhibitor. NanoGlo assay was performed according to the manufacturer's instructions. The luminescence was measured using Tecan infinite (Tecan).
as §5

sNF96.2 = experiment: RASOpathie-Model; MTT assay for cell viability; format: cell-based; settings: sNF96.2, 48 h
Protocol: FIG. 5: RASOpathie-Model Sanguinarine chloride; MTT assay for cell viability in 96 well cell culture plate
Cells were treated with Sanguinarine chloride for 48 h and cell viability was evaluated by MTT assay. DMSO-treated cells were set as 1. The results shown are mean±SEM from 3 independent experiments.

NRAS G12V = target: T2, NRAS G12V (Homo sapiens, UniProt P01111, G12V); experiment: NanoBit assay for RAS activation (LgBiT-NRAS G12V / SmBiT-CRAF RBD); format: cell-based; settings: 2 h with inhibitor, serum free DMEM
T2 construct: CRAF RBD (1-149) fused to SmBiT; transfected cells (HeLa S3 likely), NanoBiT
T2 sequence (P01111 1-186 G12V): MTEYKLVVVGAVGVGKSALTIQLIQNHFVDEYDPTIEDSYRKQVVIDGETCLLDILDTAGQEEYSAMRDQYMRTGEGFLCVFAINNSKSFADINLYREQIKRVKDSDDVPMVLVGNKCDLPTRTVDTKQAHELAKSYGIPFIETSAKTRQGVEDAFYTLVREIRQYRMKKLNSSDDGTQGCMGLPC
Protocol: as §6, §7, §5

HRAS G12V = target: T3, HRAS G12V (Homo sapiens, UniProt P01112, G12V); experiment: NanoBit assay for RAS activation (LgBiT-HRAS G12V / SmBiT-CRAF RBD); format: cell-based; settings: 2 h with inhibitor, serum free DMEM
T3 construct: CRAF RBD (1-149) fused to SmBiT; transfected cells (HeLa S3 likely), NanoBiT
T3 sequence (P01112 1-186 G12V): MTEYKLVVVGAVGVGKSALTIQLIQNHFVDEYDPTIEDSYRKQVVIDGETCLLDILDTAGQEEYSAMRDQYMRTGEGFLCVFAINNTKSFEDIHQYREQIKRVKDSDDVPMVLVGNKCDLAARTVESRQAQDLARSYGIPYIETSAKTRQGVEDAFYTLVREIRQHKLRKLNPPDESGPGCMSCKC
Protocol: as §6, §7, §5

T24 = experiment: Soft agar colony formation assay, MTT; format: cell-based; settings: Homo sapiens, T-24, 3 independent experiments
Protocol: as §2, §3, §4

[2] = system: different RAS-isoform addicted cell-lines; experiment: Soft agar colony formation assay, MTT; format: cell-based
Protocol: as §2, §3, §4

HT1080 = experiment: Soft agar colony formation assay, MTT; format: cell-based; settings: Homo sapiens, HT-1080, 3 independent experiments
Protocol: as §2, §3, §4

ASPC1 = experiment: Soft agar colony formation assay, MTT; format: cell-based; settings: Homo sapiens, 3 independent experiments
Protocol: as §2, §3, §4

HCT-116 = experiment: Soft agar colony formation assay, MTT; format: cell-based; settings: Homo sapiens; HCT-116, soft agar, 3 independent experiments
Protocol: as §2, §3, §4

NCI-H2122 = experiment: Soft agar colony formation assay, MTT; format: cell-based; settings: Homo sapiens, 3 independent experiments
Protocol: as §2, §3, §4

[3] = system: Na+/K+-ATPase transmembrane protein; settings: through action on the Na+/K+-ATPase; cited from earlier work

Compound | IC50 (BaF3 KRAS G12C) [µM] | IC50 (BaF3 KRAS G12C/Y96D) [µM] | inhibition of KRAS dependent cells (KRAS dependent cells) | IC50 (NCI-H358) [µM] | inhibition of different RAS-isoforms (RAS GTP-loading) [1] | inhibition of K-RAS activation (KRAS G12V) | IC50 (sNF96.2; 3 independent experiments) [µM] | inhibition of RAS protein of RASOpathie (sNF96.2; MTT) | inhibition of N-RAS activation (NRAS G12V) | inhibition of H-RAS activation (HRAS G12V) | IC50 (T24) [µM] | growth of RAS-isoform addicted cell-lines [2] | IC50 (HT1080) [µM] | IC50 (ASPC1) [µM] | IC50 (HCT-116) [µM] | IC50 (NCI-H2122) [µM] | toxicity to animal cells [3]
C[n+]1cc2c3c(ccc2c2ccc4cc5c(cc4c21)OCO5)OCO3.[Cl-] [Sanguinarine chloride, 13-Methyl-[1,3]benzodioxolo[5,6-c]-1,3-dioxolo[4,5-i]phenanthridinium chloide] | 1.19 | 1.76 | inhibits KRAS dependent cells irrespective of the presence of mutation | 1.45 | inhibits different RAS-isoforms | inhibits | 1.39 | inhibits RAS protein of RASOpathie | inhibits | inhibits | 1.02 | blocks the growth of different RAS-isoform addicted cell-lines and stops the growth of cancer | 0.87 | 0.97 | 0.53 | 1.55 | 
C[n+]1cc2c3c(ccc2c2ccc4cc5c(cc4c21)OCO5)OCO3 [Sanguinarine, 13-Methyl[1,3]benzodioxolo[5,6-c]-1,3-dioxolo[4,5-J]phenanthridinium] |  |  |  |  |  |  |  |  |  |  |  |  |  |  |  |  | kills animal cells through its action on the Na+/K+-ATPase transmembrane protein

Source: patent US20260294893A1, “NOVEL RAS INHIBITORS” (KHR Biotec GmbH, priority 2022, published 2026)
